Earlier results on two molecules are cited in US20220117972A1, “USE OF PPAR-DELTA AGONISTS IN THE TREATMENT OF MITOCHONDRIAL MYOPATHY” (Reneo Pharmaceuticals, Inc., priority 2019, published 2022).

The data set relates to control myoblasts. The following applies: cultured patient muscle cells study; cited from earlier work.

As for `CC(C)(Sc1ccc(CCN(CCCCC2CCCCC2)C(=O)NC2CCCCC2)cc1)C(=O)O` [GW 7647], the FAO stimulation entry is listed as “to a lower extent”.
Turning to `Cc1cc(SCc2sc(-c3ccc(C(F)(F)F)c(F)c3)nc2C)ccc1OCC(=O)O` [GW 072], the FAO stimulation entry is reported as “stimulated FAO”.
